Measurements: patent US10881110B2, “Herbicidal compositions comprising isoxazolo[5,4-b]pyridines” (BASF SE, priority 2014, dated 2021)
Several values for one entry are separate records, joined by “and”; a condition that tells them apart may be missing. Equal values may be shown once. Read-outs that look alike come from different tables or passages of the source.

Assays:
Assay in all cases: greenhouse post-emergence herbicidal test
ERICA = assay type: in vivo, Conyza canadensis; design: key to herbicidal activity against ERICA found: rating on a scale from 0 to 100; conditions: post emergence
In short: (§1)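 Seeds sown per species in loamy sand with roughly 4.6% humus; seedlings raised to 1 to 15 cm, then treated with water-borne spray of a 10% by weight emulsion concentrate. Response assessed on day 20 from 0 (normal growth) to 100 (destroyed).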

ECHCG = assay type: in vivo, Echinochloa crus-galli; design: key to herbicidal activity against ECHCG found / herbicidal activity against ECHCH found: scale 0 to 100; conditions: post emergence
In short: as §1

MATCH = assay type: in vivo, Matricaria recutita; conditions: Matricaria chamomilla, post-emergence, 480 h, post emergence, read-out: herbicidal activity against MATCH found
In short: as §1

[1] = I.1 15.62 g/ha, B.95 1 g/ha a.i.
[2] = I.1 62.5 g/ha, B.95 2 g/ha a.i.

O=C(O)c1cc(C2CC2)nc2onc(C3CC3)c12 [I.1] was tested, and the pest or weed control at 31.25 g/ha (ERICA; Erigeron canadensis, post-emergence, 480 h, I.1 alone 31.25 g/ha a.i., read-out: herbicidal activity against ERICA found) was 70%, the pest or weed control at 62.5 g/ha (ERICA; Erigeron canadensis, post-emergence, 480 h, I.1 alone 62.5 g/ha a.i., read-out: herbicidal activity against ERICA found) was 75% and the pest or weed control at 125 g/ha (ERICA; Erigeron canadensis, post-emergence, 480 h, I.1 alone 125 g/ha a.i., read-out: herbicidal activity against ERICA found) was 75%. It also gave a pest or weed control at 31.25 g/ha (ERICA; Erigeron canadensis, post-emergence, 480 h, I.1 31.25 g/ha a.i., read-out: herbicidal activity against ERICA found) of 50%, a pest or weed control at 62.5 g/ha (ERICA; Erigeron canadensis, post-emergence, 480 h, I.1 62.5 g/ha a.i., read-out: herbicidal activity against ERICA found) of 70% and a pest or weed control at 125 g/ha (ERICA; Erigeron canadensis, post-emergence, 480 h, I.1 125 g/ha a.i., read-out: herbicidal activity against ERICA found) of 65%. The pest or weed control at 15.62 g/ha (ERICA; Erigeron canadensis, post-emergence, 480 h, single active, 15.62 g/ha a.i., read-out: herbicidal activity against ERICA found) was 0%, the “herbicidal activity against ERICA found” value (ERICA; 6 days after treatment, g/ha a.i.: I.1 125, naptalam 50, mixture 125+50) was 70 and the “herbicidal activity against ERICA found” value (ERICA; [1]) was 0. For the same molecule, the “herbicidal activity against ERICA found” value (ERICA; I.1 15.62 g/ha, B.95 2 g/ha a.i.) was 0, the “herbicidal activity against ERICA found” value (ERICA; I.1 31.25 g/ha, B.103 15 g/ha a.i.) was 0 and the “herbicidal activity against ERICA found” value (ERICA; I.1 31.25 g/ha, B.95 1 g/ha a.i.) was 0. For the same molecule, the “herbicidal activity against ERICA found” value (ERICA; I.1 31.25 g/ha, B.95 2 g/ha a.i.) was 0, the “herbicidal activity against ERICA found” value (ERICA; I.1 62.5 g/ha, B.103 7.5 g/ha a.i.) was 0 and the “herbicidal activity against ERICA found” value (ERICA; I.1 62.5 g/ha, B.103 15 g/ha a.i.) was 0. The “herbicidal activity against ERICA found” value (ERICA; I.1 62.5 g/ha, B.57 2 g/ha a.i.) was 10, the “herbicidal activity against ERICA found” value (ERICA; I.1 62.5 g/ha, B.89 25 g/ha a.i.) was 10 and the “herbicidal activity against ERICA found” value (ERICA; I.1 62.5 g/ha, B.95 1 g/ha a.i.) was 10. The “herbicidal activity against ERICA found” value (ERICA; [2]) was 10, the “herbicidal activity against ERICA found” value (ERICA; a.i. g/ha: I.1 31.25, B.92 0.5, 20 days after treatment) was 25% and the “herbicidal activity against ERICA found” value (ERICA; a.i. g/ha: I.1 62.5, B.191 225, 20 days after treatment) was 90%. For the same molecule, the “herbicidal activity against ERICA found” value (ERICA; a.i. g/ha: I.1 62.5, B.69 25, 20 days after treatment) was 90%, the “herbicidal activity against ERICA found” value (ERICA; a.i. g/ha: I.1 62.5, B.80 250, 20 days after treatment) was 65% and the “herbicidal activity against ERICA found” value (ERICA; application rate a.i.: I.1 20.8 g/ha, B.107 (topramezone) 6 g/ha, alone or as mixture (composition 1.107)) was 65. For the same molecule, the “herbicidal activity against ERICA found” value (ERICA; application rate a.i.: I.1 31.25 g/ha, B.100 (isoxaflutole) 12.5 g/ha, alone or as mixture (composition 1.100)) was 25, the “herbicidal activity against ERICA found” value (ERICA; application rate a.i.: I.1 31.25 g/ha, B.84 (paraquat-dichloride) 17.5 g/ha, alone or as mixture (composition 1.84)) was 55 and the “herbicidal activity against ERICA found” value (ERICA; application rate a.i.: I.1 62.5 g/ha, B.100 (isoxaflutole) 12.5 g/ha, alone or as mixture (composition 1.100)) was 75. The “herbicidal activity against ERICA found” value (ERICA; application rate a.i.: I.1 62.5 g/ha, B.107 (topramezone) 6 g/ha, alone or as mixture (composition 1.107)) was 65, the “herbicidal activity against ERICA found” value (ERICA; applied alone at 62.5 g/ha a.i.) was 75 and the “herbicidal activity against ERICA found” value (ERICA; applied alone at 125 g/ha a.i.) was 75 and 65. The “herbicidal activity against ERICA found” value (ERICA; g/ha a.i.: I.1 31.25, B.52 2.5, mixture 31.25+2.5) was 0, the “herbicidal activity against ERICA found” value (ERICA; g/ha a.i.: I.1 31.25, B.52 5, mixture 31.25+5) was 0 and the “herbicidal activity against ERICA found” value (ERICA; g/ha a.i.: I.1 62.5, B.52 2.5, mixture 62.5+2.5) was 35. The “herbicidal activity against ERICA found” value (ERICA; g/ha a.i.: I.1 62.5, B.52 5, mixture 62.5+5) was 35, the pest or weed control at 31.25 g/ha (ECHCG; Echinochloa crus-galli, post-emergence, 480 h, I.1 alone 31.25 g/ha a.i., read-out: herbicidal activity against ECHCG found) was 0% and the pest or weed control at 62.5 g/ha (ECHCG; Echinochloa crus-galli, post-emergence, 480 h, I.1 alone 62.5 g/ha a.i., read-out: herbicidal activity against ECHCG found) was 45%. For the same molecule, the pest or weed control at 31.25 g/ha (ECHCG; Echinochloa crus-galli, post-emergence, 480 h, 31.25 g/ha a.i., read-out: herbicidal activity against ECHCG found) was 0%, the pest or weed control at 31.25 g/ha (ECHCG; Echinochloa crus-galli, post-emergence, 480 h, I.1 31.25 g/ha a.i., read-out: herbicidal activity against ECHCG found) was 70% and the pest or weed control at 15.62 g/ha (ECHCG; Echinochloa crus-galli, post-emergence, 480 h, single active, 15.62 g/ha a.i., read-out: herbicidal activity against ECHCG found) was 0%. For the same molecule, the pest or weed control at 31.25 g/ha (ECHCG; Echinochloa crus-galli, post-emergence, 480 h, single active, 31.25 g/ha a.i., read-out: herbicidal activity against ECHCG found) was 10%, the “herbicidal activity against ECHCG found” value (ECHCG; I.1 15.62 g/ha, B.167 125 g/ha a.i.) was 0 and the “herbicidal activity against ECHCG found” value (ECHCG; [1]) was 10. For the same molecule, the “herbicidal activity against ECHCG found” value (ECHCG; I.1 31.25 g/ha, B.103 7.5 g/ha a.i.) was 10, the “herbicidal activity against ECHCG found” value (ECHCG; I.1 31.25 g/ha, B.167 125 g/ha a.i.) was 10 and the “herbicidal activity against ECHCG found” value (ECHCG; [2]) was 55. For the same molecule, the “herbicidal activity against ECHCH found” value (ECHCG; I.1 125 g/ha a.i.) was 85, the “herbicidal activity against ECHCG found” value (ECHCG; a.i. g/ha: I.1 20.8, B.67 62.5, 20 days after treatment) was 30% and the “herbicidal activity against ECHCG found” value (ECHCG; a.i. g/ha: I.1 62.5, B.67 62.5, 20 days after treatment) was 65%. For the same molecule, the “herbicidal activity against ECHCG found” value (ECHCG; a.i. g/ha: I.1 62.5, B.79 25, 20 days after treatment) was 65%, the “herbicidal activity against ECHCG found” value (ECHCG; application rate a.i.: I.1 31.25 g/ha, B.40 (imazethapyr) 7.5 g/ha, alone or as mixture (composition 1.40)) was 0 and the “herbicidal activity against ECHCG found” value (ECHCG; application rate a.i.: I.1 250 g/ha, B.193 15 g/ha, alone or as mixture (composition 1.193)) was 95. It also gave a pest or weed control at 31.25 g/ha (MATCH; I.1 alone 31.25 g/ha a.i.) of 0%, a pest or weed control at 125 g/ha (MATCH; I.1 alone 125 g/ha a.i.) of 0% and a pest or weed control at 62.5 g/ha (MATCH; 62.5 g/ha a.i.) of 50%. For the same molecule, the pest or weed control at 31.25 g/ha (MATCH; I.1 31.25 g/ha a.i.) was 20% and the pest or weed control at 62.5 g/ha (MATCH; I.1 62.5 g/ha a.i.) was 30%.
